Test results published in US20260109732A1, “LIPID AMINES” (ModernaTX, Inc., priority 2021, published 2026).
Where a name gives a salt, the structure may show the parent alone.

Legend:
[1] = Encapsulation of mRNA nanoparticles with lipid amines using Ribogreen assay; format: physicochemical
Protocol: (§1) Lipids are dissolved in ethanol at a concentration of 24 mg/mL and molar ratios of 49.0:11.2:39.3:0.5 (IL1:DSPC:cholesterol:PEG-DMG-2K) and mixed with the acidification buffer (45 mM acetate buffer at pH 4). The lipid solution and acidification buffer are mixed using a multi-inlet vortex mixer at a 3:7 volumetric ratio of lipid:buffer for mixer 1 and mixer 2 and a 1:3 volumetric ratio of lipid:buffer (25% ethanol) for mixer 3. After a 5 second residence time, the resulting nanoparticles are mixed with 55 mM sodium acetate at pH 5.6 at a volumetric ratio of 5:7 of nanoparticle:buffer. See Table 2a for mixing parameters. The resulting dilute nanoparticles are then buffer exchanged and concentrated using tangential flow filtration (TFF) into a final buffer containing 5 mM sodium acetate pH 5.0. Then a 70% sucrose solution in 5 mM acetate buffer at pH 5 is subsequently added.
(§2) The resulting nanoparticles at a lipid concentration of 7.33 mg/mL in 5 mM acetate (pH 5) and 75 g/L sucrose are mixed with mRNA (luciferease or CFTR) at a concentration of 0.625 mg/mL in 42.5 mM sodium acetate pH 5.0, with N:P of 4.93. The nanoparticle solution and nanoparticles are mixed using a multi-inlet vortex mixer at a 3:2 volumetric ratio of nanoparticle:mRNA. Once loaded with mRNA, these intermediate nanoparticles undergo a 300 second residence time prior addition of neutralization buffer containing 120 mM TRIS pH 8.12 at a volumetric ratio of 5:1 of nanoparticle:buffer.
(§3) For HeLa studies evaluating luciferase protein expression, PEG-DMG-2K dissolved in a 20 mM TRIS buffer (pH 7.5) is added to the neutralized intermediate nanoparticle solution at a ratio of 1:6, bringing the solution to the final molar ratios of IL1:DSPC:cholesterol:PEG-DMG-2K of 48.5:11.1:38.9:1.5%. This nanoparticle formulation is then modified with lipid amines. In a typical example, nanoparticle formulation at a concentration of 0.18 mg/mL mRNA and a 0.56 mL volume is modified with lipid amine SA50 (467.2 nmol) prepared in buffer containing 20 mM TRIS, 14.3 mM sodium acetate, 32 g/L sucrose and 140 mM NaCl-pH 7.5 at a volumetric ratio of 1:1 of nanoparticle:buffer.
(§4) For HeLa studies evaluating CFTR protein expression, the intermediate nanoparticle formulation (1 mL, 0.415 mg mRNA) is mixed with a buffer containing 20 mM TRIS (pH 7.5), 0.9 mg/mL PEG-DMG-2K and lipid amine SA50 (647.1 nmol) at a volumetric ratio of 6:1 of nanoparticle:buffer. The resulting nanoparticle suspension undergoes concentration using a centrifugal filtration device (100 kDa molecular weight cut-off) and is diluted in running buffer (20 mM TRIS, 14.3 mM sodium acetate, and 32 g/L sucrose, pH 7.5) with a 300 mM NaCl solution to a final buffer matrix containing 70 mM NaCl.
(§5) Both resulting nanoparticle suspensions are filtered through a 0.8/0.2 μm capsule filter and filled into glass vials at an mRNA strength of about 0.1-1 mg/mLBliophysical data (Diameter and PDI from DLS measurements and Encapsualtion using Ribogreen assay) for both luciferase and CFTR mRNA nanoparticles with lipid amines is shown in Tables 2c and d, respectively.

[2] = Diameter and PDI from DLS measurements of mRNA nanoparticles with lipid amines; format: physicochemical
Protocol: as §1, §2, §3, §4, §5

[3] = tested on: HeLa cells; assay: CFTR Protein Expression Assay in HeLa Cells; format: cell-based, Human; conditions: LNPs encapsulating CFTR mRNA, N=4 wells; 5 h serum-free then 24 h; immunofluorescence vs PBS control
Protocol: as §4
(§6) Lipid nanoparticle compositions were prepared in a manner analogous to that in example 2. To evaluate LNP cellular uptake and protein expression In Vitro, HeLa cells from ATCC.org (ATCC CCL-2) are used. The cells are cultured in complete Minimum Essential Medium (MVEM) and are plated in 96 well Cell Carrier Ultra plate with PDL coated surface (PerkinElmer) prior to running an experiment.
Buffer control (PBS) and LNPs encapsulating cystic fibrosis transmembrane conductance regulator (CFTR) mRNA were dosed with MEM media in the absence of serum (N=4 replicate wells). LNP transfected cells were incubated for 5 h, followed by media removal and supplementation with complete MEM media. Cells were further incubated in complete MEM media overnight (24 h).
Following 24 hr incubation, the cells were fixed with PFA and processed for immunofluorescence (IF) using an anti-CFTR rabbit monoclonal antibody. Briefly, the cells were permeabilized with 0.5% TX-100 for 10 min, blocked with 3% bovine serum albumin (BSA)+PBST for 1 hr at room temperature, and incubated with primary anti-CFTR monoclonal antibody overnight at 4° C. Following primary antibody incubation, the cells were incubated with Alexa 488 conjugated secondary antibody for 30 mi and stained with DAPI and HCS CellMask Blue stain. Between different incubation steps the cells were either washed with PBS or PBST. Cells were imaged using Opera Phoenix spinning disk confocal microscope (PerkinElmer), and CFTR protein expression was detected using the 488 nm channel. The image analysis was performed in Harmony 4.9, with main analysis output being CFTR intensity per cell. The results shown in Table 3b show fold-change in CFTR signal intensity per cell compared to buffer (PBS) control (NA=not available).

[4] = tested on: HeLa cells; assay: Luciferase Protein Expression Assay in HeLa Cells; format: cell-based, Human; conditions: LNPs encapsulating Luciferase mRNA, 25 ng per well, N=4 wells; 5 h serum-free then 24 h; ONE-Glo
Protocol: as §3, §6
Cells were transfected with buffer control (PBS) or LNPs encapsulating Luciferase mRNA (25 ng per well; N=4 replicate wells) in serum-free MEM media. LNP transfected cells were incubated for 5 h, followed by media removal and supplementation with complete MEM media. Cells were further incubated in complete MEM media overnight (24 h). Following the 24 hr incubation, luciferase protein expression was measured using the ONE-Glo™ Luciferase Assay (Promega). Cells were lysed using 1× Passive Lysis Buffer (Cat. #E194A) for 10 min in a microplate mixer at room temperature. Luciferase in the supernatant was measured by adding Luciferase Assay Reagent (Cat. #E151A) containing luciferin. Bioluminescence was then immediately measured on a Synergy H1 plate reader (BioTek). The results shown in Table 3a show the Average Relative Light Units (RLU) of each sample tested.

[5] = CFTR mRNA nanoparticle with lipid amine
[6] = Luciferase mRNA nanoparticle modified with lipid amine

Structure (SMILES)	% Encapsulation (Ribogreen) [1, 5]	% Encapsulation (Ribogreen) [1, 6]	Diameter (nm) [2, 5]	PDI [2, 5]	Diameter (nm) [2, 6]	PDI [2, 6]	Average fold-change in CFTR signal intensity per cell compared to buffer control ± standard deviation [3]	Average Relative Light Units ± Standard Deviation [4]
CC[C@H](CC[C@@H](C)[C@H]1CC[C@H]2[C@@H]3CC=C4C[C@@H](OC(=O)CCCC(=O)N(CCCN)CCCCNCCCN)CC[C@]4(C)[C@H]3CC[C@]12C)C(C)C [SA117, (3S,8S,9S,10R,13R,14S,17R)-17-((2R,5R)-5-ethyl-6-methylheptan-2-yl)-10,13-dimethyl-2,3,4,7,8,9,10,11,12,13,14,15,16,17-tetradecahydro-1H-cyclopenta[a]phenanthren-3-yl 5-((3-aminopropyl)(4-((3-aminopropyl)amino)butyl)amino)-5-oxopentanoate trihydrochloride]	98.6%	99.7%	94.7 nm	0.17	77 nm	0.28	4.9 ± 1.2 fold-change	10134.1 ± 3860.2 Relative Light Units
CC[C@H](CC[C@@H](C)[C@H]1CC[C@H]2[C@@H]3CC=C4C[C@@H](OC(=O)CCCC(=O)N(CCCCCCCC(C)N)CCC(C)N)CC[C@]4(C)[C@H]3CC[C@]12C)C(C)C (stereo partly drawn) [SA154, (3S,8S,9S,10R,13R,14S,17R)-17-((2R,5R)-5-ethyl-6-methylheptan-2-yl)-10,13-dimethyl-2,3,4,7,8,9,10,11,12,13,14,15,16,17-tetradecahydro-1H-cyclopenta[a]phenanthren-3-yl 5-((3-aminobutyl)(8-aminononyl)amino)-5-oxopentanoate dihydrochloride]	99.1%	99.6%	72.8 nm	0.13	73 nm	0.18	16.7 ± 0.8 fold-change	28128.6 ± 4655.3 Relative Light Units
CC(C)CCC[C@@H](C)[C@H]1CC[C@H]2[C@@H]3CC=C4C[C@@H](SSCCC(=O)N(CCCCCCCC(C)N)CCC(C)N)CC[C@]4(C)[C@H]3CC[C@]12C (stereo partly drawn) [SA172, N-(3-aminobutyl)-N-(8-aminononyl)-3-(((3S,8S,9S,10R,13R,14S,17R)-10,13-dimethyl-17-((R)-6-methylheptan-2-yl)-2,3,4,7,8,9,10,11,12,13,14,15,16,17-tetradecahydro-1H-cyclopenta[a]phenanthren-3-yl)disulfaneyl)propanamide dihydrochloride]	98.3%	99.4%	70.3 nm	0.13	74 nm	0.10	17.8 ± 1.1 fold-change	27528.4 ± 6654.4 Relative Light Units
CC[C@H](CC[C@@H](C)[C@H]1CC[C@H]2[C@@H]3CC=C4C[C@@H](OC(=O)CCC(=O)N(CCCCNCCC(C)(C)N)CCC(C)(C)N)CC[C@]4(C)[C@H]3CC[C@]12C)C(C)C [SA161, (3S,8S,9S,10R,13R,14S,17R)-17-((2R,5R)-5-ethyl-6-methylheptan-2-yl)-10,13-dimethyl-2,3,4,7,8,9,10,11,12,13,14,15,16,17-tetradecahydro-1H-cyclopenta[a]phenanthren-3-yl 4-((3-amino-3-methylbutyl)(4-((3-amino-3-methylbutyl)amino)butyl)amino)-4-oxobutanoate trihydrochloride]	99.6%	99.6%	74.2 nm	0.15	77 nm	0.16	14.1 ± 1.5 fold-change	17839.3 ± 7760 Relative Light Units
CC(C)CCC[C@@H](C)[C@H]1CC[C@H]2[C@@H]3CC=C4C[C@@H](OC(=O)N(CCCN)CCCCCCN)CC[C@]4(C)[C@H]3CC[C@]12C [SA83, (3S,8S,9S,10R,13R,14S,17R)-10,13-Dimethyl-17-((R)-6-methylheptan-2-yl)-2,3,4,7,8,9,10,11,12,13,14,15,16,17-tetradecahydro-1H-cyclopenta[a]phenanthren-3-yl (6-aminohexyl)(3-aminopropyl)carbamate dihydrochloride]	99.8%	99.3%	82.3 nm	0.15	75 nm	0.14	4.8 ± 0.3 fold-change	35394.8 ± 5033.2 Relative Light Units
